Measurements as given in US20210379066A1, “COMBINATIONS OF POSITIVE ALLOSTERIC MODULATORS AND NICOTINIC ACETYLCHOLINE RECEPTOR AGONISTS FOR TREATING OCULAR CONDITIONS” (Oyster Point Pharma, Inc., priority 2018, published 2021).

How the values were obtained:
Assay type in all cases: cell-based
[1] = target: nAChR subtype alpha3beta2 (Homo sapiens, UniProt P17787+P32297); assay: Agonist characterisation versus ACh response (description)
From the text: nAChR agonist response, from which receptor activation can be determined can, for example, be generated using an appropriate cell-based assay. Cells designed to express a particular nAChR receptor subtype and generate an electrical current response when bound to and activated by a nAChR agonist can be used to characterize the agonist profile of a compound and the amount of receptor activation thus determined. An example of a generic protocol is described below.
Cells that express a particular human nAChR subtype are first exposed to ACh. ACh binds and activates the receptor, thereby evoking a current. The concentration of the ACh is chosen to elicit the maximum response of the receptor (e.g., 1280 micromolar ACh). This current is recorded as the ACh response and serves as the 100% nAChR agonist response and to which responses to other nAChR agonists are compared. After washing, the cells are exposed to a nAChR agonist at various concentrations (e.g., 0.1, 0.3, 1, 3, 10, 30, 100, and 300 micromolar). The current evoked by exposure to the nAChR agonist is measured and recorded for each nAChR concentration. This nAChR agonist response data is then normalized to unity versus the maximal ACh evoked current and plotted as a function of the logarithm of the nAChR agonist concentration. The nAChR agonist response is then calculated as a percentage of the ACh response.

[2] = target: T1, human nAChR alpha3beta4 (Homo sapiens, UniProt P30926+P32297); assay: Agonist activity, two-electrode voltage clamp in Xenopus oocytes (Examples 2 and 5); settings: versus ACh response
T1 construct: expressed in transfected cells; host or cells: Xenopus laevis oocytes (cDNA injection)
T1 sequence (P32297 32-505): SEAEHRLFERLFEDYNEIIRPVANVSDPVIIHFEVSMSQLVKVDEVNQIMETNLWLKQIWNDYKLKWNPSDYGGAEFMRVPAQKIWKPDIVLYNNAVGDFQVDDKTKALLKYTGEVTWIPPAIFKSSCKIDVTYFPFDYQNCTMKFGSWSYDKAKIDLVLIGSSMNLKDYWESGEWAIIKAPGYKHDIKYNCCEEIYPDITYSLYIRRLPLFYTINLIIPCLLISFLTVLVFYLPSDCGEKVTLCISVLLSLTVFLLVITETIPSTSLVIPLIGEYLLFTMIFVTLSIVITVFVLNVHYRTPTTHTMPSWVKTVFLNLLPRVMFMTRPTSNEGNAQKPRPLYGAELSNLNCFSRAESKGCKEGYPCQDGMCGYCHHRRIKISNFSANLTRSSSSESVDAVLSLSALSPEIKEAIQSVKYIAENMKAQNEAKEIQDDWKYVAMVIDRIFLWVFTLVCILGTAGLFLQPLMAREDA
T1 sequence (P30926 22-498): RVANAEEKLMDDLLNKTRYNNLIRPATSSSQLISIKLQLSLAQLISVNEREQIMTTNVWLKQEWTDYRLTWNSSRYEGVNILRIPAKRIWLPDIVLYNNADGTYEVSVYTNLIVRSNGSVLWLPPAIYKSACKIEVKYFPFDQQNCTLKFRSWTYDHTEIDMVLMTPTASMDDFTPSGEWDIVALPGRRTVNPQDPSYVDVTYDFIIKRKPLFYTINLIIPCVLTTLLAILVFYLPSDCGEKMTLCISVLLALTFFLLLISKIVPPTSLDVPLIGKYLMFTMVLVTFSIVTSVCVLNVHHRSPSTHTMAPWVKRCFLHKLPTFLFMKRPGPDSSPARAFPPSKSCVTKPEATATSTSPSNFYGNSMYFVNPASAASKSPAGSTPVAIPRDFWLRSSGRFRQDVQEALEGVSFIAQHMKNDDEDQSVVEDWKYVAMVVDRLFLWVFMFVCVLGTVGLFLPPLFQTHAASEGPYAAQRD
Method: (§1) All experiments were carried out at human nAChRs expressed in Xenopus oocytes using the method of cDNA expression. Xenopus oocytes were prepared and injected using standard procedures.
(§2) Briefly, ovaries were harvested from Xenopus Laevis females that have been deeply anesthetized by cooling at 4° C. and Tricaine methanesulfonate (MS-222 at a concentration of 150 mg/L) in sodium bicarbonate (300 mg/L). Once anesthetized the animal was decapitated and pithed following the rules of animal rights from the Geneva canton. A small piece of ovary was isolated for immediate preparation while the remaining part was placed at 4° C. in a sterile Barth solution containing in mM NaCl 88, KCl 1, NaHCO32.4, HEPES 10, MgSO4.7H2O 0.82, Ca(NO3)2.4H2O 0.33, CaCl2.6H2O 0.41, at pH 7.4, and supplemented with 20 μg/ml of kanamycin, 100 unit/ml penicillin. All recordings were performed at 18° C. and cells superfused with OR2 medium containing in mM: NaCl 88, KCl 2.5, HEPES 5, CaCl2.2H2O 1.8, MgCl2.6H2O 1, pH 7.4.
(§3) Currents evoked by ACh or other agonists were recorded using an automated process equipped with standard two-electrode voltage-clamp configuration (TEVC). Data were captured and analyzed using a HiQScreen proprietary data acquisition and analysis software running under Matlab (Mathworks Inc.).
(§4) See Example 1. […] The test concentration of acetylcholine chloride was 1280 micromolar.
(§5) Injections of cDNAs encoding for the human alpha3beta4, alpha3alpha5beta4, alpha4beta2, and alpha7 were performed in at least 95 oocytes were performed using a proprietary automated injection and receptor expression examined at least two days later. Oocytes were poked with two electrodes and their membrane potential maintained, unless indicated, at −80 mV throughout the experiment.
(§6) A protocol to determine agonistic activity in the oocytes expressing the nAChRs was developed. The cells were exposed to a series of increasing concentrations of a compound agonist for 10 seconds each at two minute intervals. The current evoked from exposure to the agonist at each concentration was recorded. For oocytes expressing alpha7 nAChRs, exposure to the agonist was reduced to 5 seconds. This process was repeated for each agonist tested against each type of nAChR expressing cell.
(§7) To evaluate the agonistic properties of compound 1 hemi-galactarate dihydrate a protocol of brief exposures to a series of growing concentrations of compound 1 hemi-galactarate dihydrate was used.
(§8) Agonist Preparation: See Example 1. […] The test concentration of acetylcholine chloride was 1280 micromolar.
as §5, with “Experimental Procedures: Injections” for “Injections”, “alpha4beta2, alpha4alpha6beta2,” for “alpha4beta2,”, “oocytes” for “oocytes were performed”, “injection device. Cellular” for “injection and”, “expression was” for “expression”
as §6, with “developed. Oocytes expressing a nAChR subtype were exposed to a brief test pulse of acetylcholine (1280 micromolar) while the holding current and response was evaluated. Cells displaying robust currents were washed for 90 seconds.” for “developed.”, “were then” for “were”, “nAChR” for “compound”, “intervals. The nAChR agonist test concentrations were 0.1, 0.3, 1, 3, 10, 30, 100, 300 (micromolar).” for “intervals.”

[3] = target: T2, human nAChR alpha4beta2 (Homo sapiens, UniProt P17787+P43681); assay: as above; settings: versus ACh response
T2 construct: expressed in transfected cells; host or cells: Xenopus laevis oocytes (cDNA injection)
T2 sequence (P43681 29-627 limits assumed): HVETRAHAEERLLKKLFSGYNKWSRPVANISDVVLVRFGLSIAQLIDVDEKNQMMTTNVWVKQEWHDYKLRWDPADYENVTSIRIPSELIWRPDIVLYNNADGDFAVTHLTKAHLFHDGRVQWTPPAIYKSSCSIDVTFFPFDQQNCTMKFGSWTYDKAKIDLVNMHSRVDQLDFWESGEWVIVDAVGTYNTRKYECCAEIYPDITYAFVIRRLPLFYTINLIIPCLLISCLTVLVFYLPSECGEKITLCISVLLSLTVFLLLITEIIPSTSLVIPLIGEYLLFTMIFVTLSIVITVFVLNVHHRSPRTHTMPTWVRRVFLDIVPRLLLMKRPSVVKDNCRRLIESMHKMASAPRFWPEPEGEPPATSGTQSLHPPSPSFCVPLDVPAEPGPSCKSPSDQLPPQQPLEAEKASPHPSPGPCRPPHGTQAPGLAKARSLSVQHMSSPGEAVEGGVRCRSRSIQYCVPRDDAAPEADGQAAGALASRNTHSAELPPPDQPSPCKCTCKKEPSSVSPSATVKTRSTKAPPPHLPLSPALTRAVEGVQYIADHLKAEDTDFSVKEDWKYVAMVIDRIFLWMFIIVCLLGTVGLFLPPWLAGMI
T2 sequence (P17787 26-502): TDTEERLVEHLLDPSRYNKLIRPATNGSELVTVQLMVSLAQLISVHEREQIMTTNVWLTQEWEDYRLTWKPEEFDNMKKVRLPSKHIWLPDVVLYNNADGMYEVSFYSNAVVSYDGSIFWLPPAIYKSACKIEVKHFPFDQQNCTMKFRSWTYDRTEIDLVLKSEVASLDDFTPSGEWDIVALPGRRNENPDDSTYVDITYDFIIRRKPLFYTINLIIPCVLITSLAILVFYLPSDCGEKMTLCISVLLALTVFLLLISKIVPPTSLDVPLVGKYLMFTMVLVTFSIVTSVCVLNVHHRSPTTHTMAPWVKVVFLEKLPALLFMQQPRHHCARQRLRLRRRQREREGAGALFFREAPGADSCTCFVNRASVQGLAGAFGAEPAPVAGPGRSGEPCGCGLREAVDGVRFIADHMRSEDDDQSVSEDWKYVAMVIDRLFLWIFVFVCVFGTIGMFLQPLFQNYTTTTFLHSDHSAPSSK
Method: as §1, §2, §3, §4, §5, §6, §7, §8
as §5, with “Experimental Procedures: Injections” for “Injections”, “alpha4beta2, alpha4alpha6beta2,” for “alpha4beta2,”, “oocytes” for “oocytes were performed”, “injection device. Cellular” for “injection and”, “expression was” for “expression”
as §6, with “developed. Oocytes expressing a nAChR subtype were exposed to a brief test pulse of acetylcholine (1280 micromolar) while the holding current and response was evaluated. Cells displaying robust currents were washed for 90 seconds.” for “developed.”, “were then” for “were”, “nAChR” for “compound”, “intervals. The nAChR agonist test concentrations were 0.1, 0.3, 1, 3, 10, 30, 100, 300 (micromolar).” for “intervals.”

[4] = target: T3, human nAChR alpha7 (Homo sapiens, UniProt P36544); assay: as above; settings: versus ACh response
T3 construct: expressed in transfected cells; host or cells: Xenopus laevis oocytes (cDNA injection)
T3 sequence (P36544 23-502): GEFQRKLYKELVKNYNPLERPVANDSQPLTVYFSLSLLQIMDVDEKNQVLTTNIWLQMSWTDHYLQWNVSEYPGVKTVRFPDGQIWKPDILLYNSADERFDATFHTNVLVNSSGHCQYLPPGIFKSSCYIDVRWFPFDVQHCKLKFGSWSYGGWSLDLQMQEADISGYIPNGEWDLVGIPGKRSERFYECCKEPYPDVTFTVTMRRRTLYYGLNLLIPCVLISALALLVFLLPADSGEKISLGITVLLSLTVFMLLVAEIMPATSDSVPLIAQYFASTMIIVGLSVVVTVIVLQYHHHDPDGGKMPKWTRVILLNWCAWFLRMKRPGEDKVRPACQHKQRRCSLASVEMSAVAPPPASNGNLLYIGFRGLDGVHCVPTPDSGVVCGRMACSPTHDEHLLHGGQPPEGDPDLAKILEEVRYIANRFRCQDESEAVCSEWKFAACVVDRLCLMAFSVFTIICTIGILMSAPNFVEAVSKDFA
Method: as §1, §2, §3, §4, §5, §6, §7, §8
as §5, with “Experimental Procedures: Injections” for “Injections”, “alpha4beta2, alpha4alpha6beta2,” for “alpha4beta2,”, “oocytes” for “oocytes were performed”, “injection device. Cellular” for “injection and”, “expression was” for “expression”
as §6, with “developed. Oocytes expressing a nAChR subtype were exposed to a brief test pulse of acetylcholine (1280 micromolar) while the holding current and response was evaluated. Cells displaying robust currents were washed for 90 seconds.” for “developed.”, “were then” for “were”, “nAChR” for “compound”, “intervals. The nAChR agonist test concentrations were 0.1, 0.3, 1, 3, 10, 30, 100, 300 (micromolar).” for “intervals.”

[5] = target: T4, human nAChR alpha3alpha5beta4 (Homo sapiens, UniProt P30532+P30926+P32297); assay: as above; settings: versus ACh response
T4 construct: expressed in transfected cells; host or cells: Xenopus laevis oocytes (cDNA injection)
T4 sequence (P32297 32-505): as the sequence (P32297 32-505) above
T4 sequence (P30532 23-468): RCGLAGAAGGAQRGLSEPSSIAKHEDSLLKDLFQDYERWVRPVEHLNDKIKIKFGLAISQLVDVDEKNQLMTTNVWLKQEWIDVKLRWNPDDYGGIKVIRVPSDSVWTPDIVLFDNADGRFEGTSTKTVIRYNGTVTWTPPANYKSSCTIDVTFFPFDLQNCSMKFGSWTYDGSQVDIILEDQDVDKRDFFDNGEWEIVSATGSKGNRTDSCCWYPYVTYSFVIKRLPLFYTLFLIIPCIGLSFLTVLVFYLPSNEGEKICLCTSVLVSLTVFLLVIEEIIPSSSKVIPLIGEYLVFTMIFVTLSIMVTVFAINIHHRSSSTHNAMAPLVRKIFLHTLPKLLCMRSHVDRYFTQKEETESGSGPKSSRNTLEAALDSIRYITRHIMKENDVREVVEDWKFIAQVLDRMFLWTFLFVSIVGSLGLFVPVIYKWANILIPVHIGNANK
T4 sequence (P30926 22-498): as the sequence (P30926 22-498) above
Method: as §1, §2, §3, §4, §5, §6, §7, §8
as §5, with “Experimental Procedures: Injections” for “Injections”, “alpha4beta2, alpha4alpha6beta2,” for “alpha4beta2,”, “oocytes” for “oocytes were performed”, “injection device. Cellular” for “injection and”, “expression was” for “expression”
as §6, with “developed. Oocytes expressing a nAChR subtype were exposed to a brief test pulse of acetylcholine (1280 micromolar) while the holding current and response was evaluated. Cells displaying robust currents were washed for 90 seconds.” for “developed.”, “were then” for “were”, “nAChR” for “compound”, “intervals. The nAChR agonist test concentrations were 0.1, 0.3, 1, 3, 10, 30, 100, 300 (micromolar).” for “intervals.”

nAChR subtype alpha3beta2, sequence (P32297 32-505): as the sequence (P32297 32-505) above
nAChR subtype alpha3beta2, sequence (P17787 26-502): as the sequence (P17787 26-502) above

## C(=C\[C@H]1CCNC1)/c1cncnc1 [Compound 1, (R)-5-((E)-2-pyrrolidin-3-ylvinyl)pyrimidine]
[1]
  agonist character: partial agonist
[2]
  agonist character: full agonist
[3]
  agonist character: full agonist
[4]
  agonist character: weak partial agonist
[5]
  agonist character: full agonist
